Laboratory results as given in patent US9278990B2, “Substituted nucleotide analogs” (priority 2010, dated 2016).
pEC50: −log10 of the molar value.

tested on: Huh-7 cells containing the self-replicating, subgenomic HCV replicon; test: HCV replicon assay (luciferase reporter); type: cell-based; details: Hepatitis C virus, Huh-7, 72 h
Protocol: Huh-7 cells containing the self-replicating, subgenomic HCV replicon with a stable luciferase (LUC) reporter were cultured in Dulbecco's modified Eagle's medium (DMEM) containing 2 mM L-glutamine and supplemented with 10% heat-inactivated fetal bovine serum (FBS), 1% penicillin-streptomyocin, 1% nonessential amino acids, and 0.5 mg/mL G418.
On the first day, 5,000 HCV replicon cells were plated per well in a 96-well plate. On the following day, test compounds were solubilized in 100% DMSO to 100× the desired final testing concentration. Each compound was then serially diluted (1:3) up to 9 different concentrations. Compounds in 100% DMSO are reduced to 10% DMSO by diluting 1:10 in cell culture media. The compounds were diluted to 10% DMSO with cell culture media, which were used to dose the HCV replicon cells in 96-well format. The final DMSO concentration was 1%. The HCV replicon cells were incubated at 37° C. for 72 hours. At 72 hours, cells were processed when the cells are still subconfluent. Compounds that reduce the LUC signal are determined by Bright-Glo Luciferase Assay (Promega, Madison, Wis.). Percent Inhibition was determined for each compound concentration in relation to the control cells (untreated HCV replicon) to calculate the EC50.

Compound | pEC50
CC(C)OC(=O)C(C)NP(=S)(OC[C@@]1(N=[N+]=[N-])O[C@@H](n2ccc(=O)[nH]c2=O)[C@H](O)[C@@H]1O)Oc1ccccc1 (some centres unmarked) | 4.00 to 5.00
C[C@H](NP(=S)(OC[C@H]1O[C@@H](n2cnc3c(N)ncnc32)[C@](C)(O)[C@@H]1O)Oc1ccccc1)C(=O)OCC(C)(C)C (some centres unmarked) | > 6.00
CC(C)OC(=O)[C@H](C)NP(=S)(OC[C@H]1O[C@@H](n2ccc(=O)[nH]c2=O)[C@](C)(O)[C@@H]1O)Oc1ccccc1 (some centres unmarked) | > 6.00
COc1nc(N)nc2c1ncn2[C@@H]1O[C@H](COP(=S)(N[C@@H](C)C(=O)OC(C)C)Oc2ccccc2)[C@@H](O)[C@@]1(C)F (some centres unmarked) | > 6.00
CC(C)OC(=O)[C@H](C)NP(=S)(OC[C@H]1O[C@@H](n2ccc(=O)[nH]c2=O)[C@](C)(O)[C@@H]1O)Oc1ccc(F)cc1 (some centres unmarked) | > 6.00
COc1nc(N)nc2c1ncn2[C@@H]1O[C@H](COP(=S)(N[C@@H](C)C(=O)OC2CCCCC2)Oc2ccccc2)[C@@H](O)[C@@]1(C)O (some centres unmarked) | > 6.00
C[C@H](NP(=S)(OC[C@H]1O[C@@H](n2ccc(=O)[nH]c2=O)[C@](C)(O)[C@@H]1O)Oc1ccccc1)C(=O)OC1CCCCC1 (some centres unmarked) | > 6.00
COc1nc(N)nc2c1ncn2[C@@H]1O[C@H](COP(=S)(NC(C)C(=O)OC(C)C)Oc2ccccc2)C(O)C1(C)F (some centres unmarked) | > 6.00
CC(C)OC(=O)[C@H](C)NP(=S)(OC[C@@]1(N=[N+]=[N-])O[C@@H](n2ccc(=O)[nH]c2=O)[C@H](O)[C@@H]1O)Oc1ccccc1 (some centres unmarked) | 4.00 to 5.00
COc1ccc(OP(=S)(N[C@@H](C)C(=O)OC(C)C)OC[C@H]2O[C@@H](n3ccc(=O)[nH]c3=O)[C@](C)(O)[C@@H]2O)cc1 (some centres unmarked) | > 6.00
CC(C)OC(=O)[C@H](C)NP(=S)(OC[C@H]1O[C@@H](n2ccc(=O)[nH]c2=O)[C@](C)(O)[C@@H]1O)Oc1ccccc1Cl (some centres unmarked) | > 6.00
CC(C)OC(=O)[C@H](C)NP(=S)(OC[C@H]1O[C@@H](n2ccc(=O)[nH]c2=O)[C@](C)(O)[C@@H]1O)Oc1ccc(Cl)cc1 (some centres unmarked) | > 6.00
COc1nc(N)nc2c1ncn2[C@@H]1O[C@H](COP(=S)(N[C@@H](C)C(=O)OC2CCCCC2)Oc2cccc3ccccc23)[C@@H](O)[C@@]1(C)O (some centres unmarked) | > 6.00
CC(C)OC(=O)[C@H](C)NP(=S)(OC[C@H]1O[C@@H](n2ccc(=O)[nH]c2=O)[C@](C)(OC(=O)C(C)C)[C@@H]1OC(=O)C(C)C)Oc1ccccc1 (some centres unmarked) | > 6.00
C[C@H](NP(=S)(OC[C@H]1O[C@@H](n2cnc3c(=O)[nH]c(N)nc32)[C@](C)(O)[C@@H]1O)Oc1ccccc1)C(=O)OCC(C)(C)C (some centres unmarked) | > 6.00
CC(C)C[C@H](NP(=S)(OC[C@H]1O[C@@H](n2ccc(=O)[nH]c2=O)[C@](C)(O)[C@@H]1O)Oc1ccccc1)C(=O)OC(C)C (some centres unmarked) | 5.00 to 6.00
C[C@H](NP(=S)(OC[C@H]1O[C@@H](n2ccc(=O)[nH]c2=O)[C@](C)(F)[C@@H]1O)Oc1ccccc1)C(=O)OC1CCCCC1 (some centres unmarked) | > 6.00
CC[C@H](NP(=S)(OC[C@H]1O[C@@H](n2ccc(=O)[nH]c2=O)[C@](C)(O)[C@@H]1O)Oc1ccccc1)C(=O)OC(C)C (some centres unmarked) | > 6.00
CC(C)OC(=O)[C@H](C)NP(=S)(OC[C@H]1O[C@@H](n2cnc3c(N)nc(N)nc32)[C@](C)(O)[C@@H]1O)Oc1ccccc1 (some centres unmarked) | > 6.00

Compound | pEC50
[2H]C([2H])(OP(=S)(N[C@@H](C)C(=O)OC(C)C)Oc1ccccc1)[C@H]1O[C@@H](n2ccc(=O)[nH]c2=O)[C@](C)(O)[C@@H]1O (some centres unmarked) | > 6.00
C[C@H](NP(=S)(OC[C@H]1O[C@@H](n2ccc(=O)[nH]c2=O)[C@](C)(O)[C@@H]1O)Oc1cccc2ccccc12)C(=O)OCC(C)(C)C (some centres unmarked) | > 6.00
CCC(=O)O[C@@H]1[C@@H](COP(=S)(N[C@@H](C)C(=O)OC(C)C)Oc2ccccc2)O[C@@H](n2ccc(=O)[nH]c2=O)[C@]1(C)OC(=O)CC (some centres unmarked) | > 6.00
C[C@H](NP(=S)(OC[C@H]1O[C@@H](n2ccc(=O)[nH]c2=O)[C@](C)(F)[C@@H]1O)Oc1ccccc1)C(=O)OCC(C)(C)C (some centres unmarked) | > 6.00
CC(C)OC(=O)[C@H](C)NP(=S)(OC[C@H]1O[C@@H](n2ccc(=O)[nH]c2=O)[C@](C)(O)[C@@H]1OC(=O)C(C)C)Oc1ccccc1 (some centres unmarked) | > 6.00
COc1nc(N)nc2c1ncn2[C@@H]1O[C@H](COP(=S)(N[C@@H](C)C(=O)OCC(C)(C)C)Oc2cccc3ccccc23)[C@@H](O)[C@@]1(C)O (some centres unmarked) | > 6.00
CC(C)OC(=O)[C@H](Cc1ccccc1)NP(=S)(OC[C@H]1O[C@@H](n2ccc(=O)[nH]c2=O)[C@](C)(O)[C@@H]1O)Oc1ccccc1 (some centres unmarked) | 5.00 to 6.00
CC(C)OC(=O)[C@H](C)N[P@@](=S)(OC[C@H]1O[C@@H](n2ccc(=O)[nH]c2=O)[C@](C)(O)[C@@H]1O)Oc1ccccc1 | > 6.00
COC(=O)[C@H](C)NP(=S)(OC[C@H]1O[C@@H](n2ccc(=O)[nH]c2=O)[C@](C)(O)[C@@H]1O)Oc1cccc2ccccc12 (some centres unmarked) | > 6.00
CCC[C@H](NP(=S)(OC[C@H]1O[C@@H](n2ccc(=O)[nH]c2=O)[C@](C)(O)[C@@H]1O)Oc1ccccc1)C(=O)OC(C)C (some centres unmarked) | > 6.00
CC(C)OC(=O)[C@H](C)NP(=S)(OC[C@H]1O[C@@H](n2ccc(=O)[nH]c2=O)[C@](C)(F)[C@@H]1O)Oc1ccccc1 (some centres unmarked) | 5.00 to 6.00
COc1nc(N)nc2c1ncn2[C@@H]1O[C@H](COP(=S)(NC(C)C(=O)OC(C)C)Oc2ccccc2)C(O)C1(C)O (some centres unmarked) | > 6.00
C[C@H](NP(=S)(OC[C@@]1(N=[N+]=[N-])O[C@@H](n2ccc(=O)[nH]c2=O)[C@H](O)[C@@H]1O)Oc1ccccc1)C(=O)OCC(C)(C)C (some centres unmarked) | 4.00 to 5.00
CC(C)OC(=O)[C@H](C)NP(=S)(OC[C@H]1O[C@@H](n2cnc3c(N)ncnc32)[C@](C)(O)[C@@H]1O)Oc1cccc2ccccc12 (some centres unmarked) | > 6.00
[2H]C([2H])(OP(=S)(N[C@@H](C)C(=O)OC(C)C)Oc1ccccc1)[C@H]1O[C@@H](n2ccc(=O)[nH]c2=O)[C@](C)(O)[C@@H]1OC(C)=O (some centres unmarked) | > 6.00
CC(C)OC(=O)[C@H](C)NP(=S)(OC[C@H]1O[C@@H](n2cnc3c(NC4CC4)nc(N)nc32)[C@](C)(O)[C@@H]1O)Oc1ccccc1 (some centres unmarked) | > 6.00
Cc1ccc(OP(=S)(N[C@@H](C)C(=O)OC(C)C)OC[C@H]2O[C@@H](n3ccc(=O)[nH]c3=O)[C@](C)(O)[C@@H]2O)cc1 (some centres unmarked) | > 6.00
COc1nc(N)nc2c1ncn2[C@@H]1O[C@H](COP(=S)(N[C@@H](C)C(=O)OCC(C)(C)C)Oc2ccccc2)[C@@H](O)[C@@]1(C)O (some centres unmarked) | > 6.00
CC(C)OC(=O)CNP(=S)(OC[C@H]1O[C@@H](n2ccc(=O)[nH]c2=O)[C@](C)(O)[C@@H]1O)Oc1ccccc1 (some centres unmarked) | 5.00 to 6.00

Compound | pEC50
C=CCNc1nc(N)nc2c1ncn2[C@@H]1O[C@H](COP(=S)(N[C@@H](C)C(=O)OC(C)C)Oc2ccccc2)[C@@H](O)[C@@]1(C)O (some centres unmarked) | > 6.00
CC(C)OC(=O)[C@H](C)N[P@](=S)(OC[C@H]1O[C@@H](n2ccc(=O)[nH]c2=O)[C@](C)(O)[C@@H]1O)Oc1ccccc1 | > 6.00
COc1nc(N)nc2c1ncn2[C@@H]1O[C@H](COP(=S)(N[C@@H](C)C(=O)OC(C)C)Oc2ccccc2)[C@@H](O)[C@@]1(C)O (some centres unmarked) | > 6.00
CC(C)OC(=O)[C@H](C)NP(=S)(OC[C@H]1O[C@@H](n2ccc(=O)[nH]c2=O)[C@](C)(O)[C@@H]1O)Oc1cccnc1 (some centres unmarked) | > 6.00
C[C@H](NP(=S)(OC[C@H]1O[C@@H](n2ccc(=O)[nH]c2=O)[C@](C)(O)[C@@H]1O)Oc1ccccc1)C(=O)OCC(C)(C)C (some centres unmarked) | > 6.00
C[C@H](NP(=S)(OC[C@H]1O[C@@H](n2cnc3c(=O)[nH]c(N)nc32)[C@](C)(O)[C@@H]1O)Oc1ccccc1)C(=O)OC1CCCCC1 (some centres unmarked) | > 6.00
CC(C)OC(=O)[C@H](C)NP(=S)(OC[C@H]1O[C@@H](n2ccc(=O)[nH]c2=O)[C@](C)(O)[C@@H]1O)Oc1cccc2ncccc12 (some centres unmarked) | > 6.00
C[C@H](NP(=S)(OC[C@H]1O[C@@H](n2cnc3c(=O)[nH]c(N)nc32)[C@](C)(F)[C@@H]1O)Oc1ccccc1)C(=O)OCC(C)(C)C (some centres unmarked) | > 6.00
CC(C)OC(=O)[C@H](C)NP(=S)(OC[C@H]1O[C@@H](n2cnc3c(Cl)nc(N)nc32)[C@](C)(O)[C@@H]1O)Oc1ccccc1 (some centres unmarked) | > 6.00
Cc1ccccc1OP(=S)(N[C@@H](C)C(=O)OC(C)C)OC[C@H]1O[C@@H](n2ccc(=O)[nH]c2=O)[C@](C)(O)[C@@H]1O (some centres unmarked) | > 6.00
CSCC[C@H](NP(=S)(OC[C@H]1O[C@@H](n2ccc(=O)[nH]c2=O)[C@](C)(O)[C@@H]1O)Oc1ccccc1)C(=O)OC(C)C (some centres unmarked) | 5.00 to 6.00
CC(C)OC(=O)[C@H](C)NP(=S)(OC[C@H]1O[C@@H](n2ccc(=O)[nH]c2=O)[C@](C)(O)[C@@H]1O)Oc1ccc(F)c(Cl)c1 (some centres unmarked) | > 6.00
CC(C)OC(=O)C(C)NP(=S)(OC[C@H]1O[C@@H](n2cnc3c(=O)[nH]c(N)nc32)C(C)(O)C1O)Oc1ccccc1 (some centres unmarked) | > 6.00
CC(C)OC(=O)[C@H](C)NP(=S)(OC[C@H]1O[C@@H](n2ccc(=O)[nH]c2=O)[C@](C)(O)[C@@H]1O)Oc1cccc2ccccc12 (some centres unmarked) | > 6.00
C[C@H](NP(=S)(OC[C@H]1O[C@@H](n2ccc(=O)[nH]c2=O)[C@](C)(O)[C@@H]1O)Oc1cccc2ccccc12)C(=O)OC1CCCCC1 (some centres unmarked) | > 6.00
CCC(=O)O[C@@H]1[C@@H](COP(=S)(N[C@@H](C)C(=O)OC(C)C)Oc2ccccc2)O[C@@H](n2ccc(=O)[nH]c2=O)[C@]1(C)O (some centres unmarked) | > 6.00
CC(C)OC(=O)[C@@H](NP(=S)(OC[C@H]1O[C@@H](n2ccc(=O)[nH]c2=O)[C@](C)(O)[C@@H]1O)Oc1ccccc1)C(C)C (some centres unmarked) | 4.00 to 5.00
CC(C)OC(=O)[C@H](C)NP(=S)(OC[C@H]1O[C@@H](n2cnc3c(=O)[nH]c(N)nc32)[C@](C)(O)[C@@H]1O)Oc1ccccc1 (some centres unmarked) | > 6.00
